In ChEMBL document CHEMBL2062468, “Identification of first proadrenomedullin N-terminal 20 peptide (PAMP) modulator by means of virtual screening and NMR interaction experiments” (Eur J Med Chem, 2012) one finds Activity data, which are given here for 32 compounds.

Calls of active or inactive are those of the source. The rule behind the calls is not given here.

One test concerns the target T1, Pro-adrenomedullin (Homo sapiens) (UniProt P35318).
T1 sequence (whole entry): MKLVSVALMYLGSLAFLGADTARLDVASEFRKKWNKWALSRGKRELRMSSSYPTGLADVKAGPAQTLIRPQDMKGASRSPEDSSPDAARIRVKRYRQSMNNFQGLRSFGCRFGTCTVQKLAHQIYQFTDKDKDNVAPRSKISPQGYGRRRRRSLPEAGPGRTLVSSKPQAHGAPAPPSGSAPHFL
Description: Binding affinity to human synthetic proadrenomedullin N-terminal 20 peptide assessed as reduction in absorbance at 1 uM after 1 hr by monoclonal antibody method. Also on record: scale not given: the % may be the effect or the level left.
Turning to `S=C(Nc1ccc2c(c1)Cc1ccccc1-2)Nc1ccc2c(c1)Cc1ccccc1-2`, the Activity is 80.8%.
On the same count and under the same terms, in the case of `O=C1C2C3C=CC(C2C(=O)N1CN1CCSCC1)C1C2C(=O)N(CN4CCSCC4)C(=O)C2C31` (stereo unspecified) it was 92.5%; in that of `O=S(=O)(O)c1ccc(-c2nnc(-c3ccccn3)nc2-c2ccc(S(=O)(=O)O)o2)o1`, 81.9%; in that of `c1ccc([PH](CC[PH](c2ccccc2)(c2ccccc2)c2ccccc2)(c2ccccc2)c2ccccc2)cc1`, 84.6%.
Same read-out and setting: with `Nc1nc(-c2ccc3ccccc3c2)cc(-c2cc(-c3ccc4ccccc4c3)nc(N)n2)n1` the figure was 104%; with `Cn1c(=O)c2c(ncn2CN2CCN(Cn3cnc4c3c(=O)n(C)c(=O)n4C)CC2)n(C)c1=O`, 76.4%.
Same read-out and setting: in the case of `O=C1c2ccccc2C(=O)c2c(NC3CCCCC3)ccc(Nc3ccc(S(=O)(=O)O)cc3)c21` it was 101%; in that of `Clc1ccc2c(N3CCC(CCC4CCN(c5ncnc6cc(Cl)ccc56)CC4)CC3)ncnc2c1`, 88%; in that of `CC1(C)CC(Nc2ccc(Nc3ccccc3)cc2)CC(C)(C)N1`, 96.2%.
With `Cn1cnc([N+](=O)[O-])c1Sc1nc(N)nc2c1ncn2[C@H]1C[C@H](O)[C@@H](CO)O1`, the Activity came out at 86.3%.
Same read-out and setting: with `C[C@]12CC[C@@H]3c4ccc(O)cc4CC[C@H]3[C@@H]1CC[C@@H]2OC(=O)CCC1CCCC1` the figure was 91.2%.
The same measure, in the same setting: in the case of `S=C1NCN2CCN(CC2)CNC(=S)C(=S)NCN2CCN(CC2)CNC1=S` it was 88%; in that of `Cc1ccc2ccccc2c1CSc1nc(N)nc2c1ncn2CC(C)C`, 85.5%.
With `FC(F)(F)c1nc2ccc(SSc3ccc4nc(C(F)(F)F)[nH]c4c3)cc2[nH]1`, the Activity is 109%.
Same read-out and setting: with `c1cc(NNc2cccc(-c3nnn[nH]3)c2)cc(-c2nnn[nH]2)c1` the figure was 95.3%.
On the same count and under the same terms, in the case of `c1ccc2c(CN3CCN(Cc4c[nH]c5ccccc45)CC3)c[nH]c2c1` it was 89.7%.
On the same count and under the same terms, with `C[C@]12CC[C@@H]3c4ccc(O)cc4CC[C@H]3[C@@H]1CC[C@@H]2OC(=O)CCc1ccccc1` the figure was 98.4%.
On to `O=c1[nH]c2ccccc2n1CCCN1CCC(n2c(=O)[nH]c3cc(Cl)ccc32)CC1`, for which the Activity is 80.1%.
Consider `Nc1ncnc2nc(-c3ccc(C[PH](c4ccccc4)(c4ccccc4)c4ccccc4)cc3)[nH]c12`, for which the Activity was 76%.
As to `Nc1nc(SCc2ccccc2)c2ncn(Cc3ccccc3)c2n1`, the Activity amounted to 91.4%.
Still for that read-out and setting: with `O=C1C(Cl)=C(Sc2nnc3c4ccccc4c4ccccc4c3n2)C(=O)c2ccccc21` the figure was 88.4%.
Same read-out and setting: with `O=[N+]([O-])c1ccc2c(c1)N=C1OC(c3c[nH]c4ccc(COc5ccccc5)cc34)C(O)=C1N2` (stereo unspecified) the figure was 92.7%.
On the same count and under the same terms, with `O=S(=O)(O)c1ccc2cc(/N=N/c3cc(S(=O)(=O)O)c4cccnc4c3O)ccc2c1` the figure was 86.4%.
On to `CC(C)CCC[C@@H](C)[C@H]1CC[C@H]2[C@@H]3CCC4CC(N)CC[C@]4(C)[C@H]3CC[C@]12C` (stereo partly specified), for which the Activity was found to be 106%.
Same read-out and setting: with `OC[C@H]1O[C@@H](n2cnc3c(SCc4ccccc4)ncnc32)[C@H](O)[C@@H]1O` the figure was 109%; with `O=C(O)c1c(-c2nccc3ccccc23)[nH]c(-c2ccccc2)c1S(=O)(=O)O`, 96.7%.
On the same count and under the same terms, in the case of `CN1C(=O)C2N=C(C3CC(=O)CC(c4nc5c(=O)n(C)c(=O)n(C)c5[nH]4)N3)NC2N(C)C1=O` (stereo unspecified) it was 85.1%.
The same measure, in the same setting: with `O=C(O)CNC(=O)C1NC(C(F)(F)F)(C(F)(F)F)OC1(C(F)(F)F)C(F)(F)F` (stereo unspecified) the figure was 92.1%; with `Cc1ccc(-c2nc(-c3nccc4ccccc34)oc2-c2ccccc2)cc1`, 72.1%.
In the case of `CC1c2ccccc2Cn2cc3c(c21)C(=O)c1cccc(OP(=O)(O)OCc2ccccc2)c1C3=O` (stereo unspecified), the Activity amounted to 107%.
Turning to `Nc1nc(-c2ccccc2)c(-c2ccccc2)c(-c2nc(N)nc(-c3ccccc3)c2-c2ccccc2)n1`, the Activity worked out at 109%.
On the same count and under the same terms, in the case of `C(CCc1nnc2c(n1)CCCC2)Cc1nnc2c(n1)CCCC2` it was 96.5%.

The subject of the next test is Mus musculus. Description: Induction of angiogenesis in mouse athymic nude mouse implanted with matrigel containing compound at 1 uM measured after 11 days by direct in vivo angiogenesis assay. Type of test: functional, organism-based.
In the case of `CN1C(=O)C2N=C(C3CC(=O)CC(c4nc5c(=O)n(C)c(=O)n(C)c5[nH]4)N3)NC2N(C)C1=O` (stereo unspecified), the outcome was Active.

Another test concerns the target T1, Pro-adrenomedullin (Homo sapiens). The experiment in a line: Binding affinity to human proadrenomedullin N-terminal 20 peptide at 500 uM by NMR spectroscopy.
Take `O=S(=O)(O)c1ccc2cc(/N=N/c3cc(S(=O)(=O)O)c4cccnc4c3O)ccc2c1`: the result was Active.
Still for that read-out and setting: with `CN1C(=O)C2N=C(C3CC(=O)CC(c4nc5c(=O)n(C)c(=O)n(C)c5[nH]4)N3)NC2N(C)C1=O` (stereo unspecified) the entry was “Active”.

For a further test the target is unchanged. The experiment in a line: Binding affinity to human proadrenomedullin N-terminal 20 peptide assessed as fragmentation of PAMP protein at 500 uM by MS analysis.
For `O=S(=O)(O)c1ccc2cc(/N=N/c3cc(S(=O)(=O)O)c4cccnc4c3O)ccc2c1`, the outcome was Active.
